According to article PMC7564282, “Juniperonic Acid Biosynthesis is Essential in Caenorhabditis elegans Lacking Δ6 Desaturase (fat-3) and Generates New ω-3 Endocannabinoids” (Cells, 2020):

Experiments:
NPR-19 = assay: [3H]CP55,940 binding normalized against NPR-19 null mutant npr-19(ok2068); set-up: species or system C. elegans; details: no saturation binding curve (data not shown)
Description: (§1) Briefly, 75 μg of crude membrane preparations were resuspended in 300 μL of assay buffer (50 mM Tris-HCl, 2.5 mM EDTA, 5 mM MgCl2, 0.5% BSA, pH 7.5) in silanized glass tubes and preincubated with 5 µM JZL-195 for 30 min at 30 °C. […] CP55,940 for 75 min at 30 °C. After the incubation time, membrane suspensions were rapidly filtered through a 0.1% polyethyleneimine presoaked 96-well microplate bonded with GF/B glass fiber filters (UniFilter-96 GF/B, PerkinElmer Life Sciences) under vacuum and washed 12 times with 120 µL of washing buffer (50 mM Tris-HCl, 2.5 mM EDTA, 5 mM MgCl2, 0.5% BSA, pH 7.5). Filters were added with 50 µL of MicroScint20 scintillation liquid, and radioactivity was measured with the 1450 MicroBeta Trilux top counter (PerkinElmer Life Sciences). The results were analyzed with GraphPad Prism 5® and expressed as % of [^3H]CP55,940 binding. IC50 values of each compound were estimated from fitted nonlinear curves and were used to calculate the Ki values by applying the Cheng-Prusoff equation. Specific binding was determined using the npr-32(ok2541) mutant strain in which saturation binding was abolished. Importantly, normalizing against the NPR-19 null mutant strain- npr-19(ok2068), no saturation binding curve could be achieved.

NPR-32 = biological target: T1, NPR-32 (Caenorhabditis elegans, UniProt O62403); assay: Saturation binding of [3H]CP55,940 to NPR-32 receptors; set-up: species or system C. elegans; details: saturation binding curve, worm membranes, read-out: apparent Kd
T1 sequence (O62403 1-440): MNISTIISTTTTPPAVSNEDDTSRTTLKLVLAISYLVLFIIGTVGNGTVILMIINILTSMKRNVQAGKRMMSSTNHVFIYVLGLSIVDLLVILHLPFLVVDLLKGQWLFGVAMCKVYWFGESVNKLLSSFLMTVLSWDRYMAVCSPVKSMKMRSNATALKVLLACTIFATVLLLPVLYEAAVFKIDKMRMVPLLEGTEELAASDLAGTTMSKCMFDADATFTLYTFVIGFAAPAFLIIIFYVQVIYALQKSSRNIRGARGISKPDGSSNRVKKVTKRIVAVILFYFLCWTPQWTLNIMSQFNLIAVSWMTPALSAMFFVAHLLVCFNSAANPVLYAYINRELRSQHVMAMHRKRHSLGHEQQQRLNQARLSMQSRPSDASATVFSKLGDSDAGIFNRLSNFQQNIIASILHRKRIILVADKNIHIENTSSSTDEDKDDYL
Description: as §1
However, no binding or other direct interactions between AEA and these GPCRs were reported. […]

CCCCCCC(C)(C)c1ccc([C@@H]2C[C@H](O)CC[C@H]2CCCO)c(O)c1 [CP55,940]
binding to NPR-19 (NPR-19): did not bind | Kd (NPR-32): 2.5 ± 1.8 nM
